# Test results reported in US20240024298A1, “COMPOSITIONS AND METHODS FOR THE TREATMENT OF HPV-ASSOCIATED DISEASE STATES” (Children's Hospital Medical Center, priority 2022, published 2024).
# Key:
# Type in all cases: cell-based
# [1] = system: HPV+ keratinocytes grown into organotypic epithelial rafts; experiment: EdU proliferation in HPV+ organotypic epithelial rafts
# Protocol: (§1) On raft day 14, the tissues were harvested and lysed with RIPA buffer to extract protein for western blotting. […] Beta-actin was used to show equal protein loading. (B) HPV− and HPV+ rafts were treated with increasing doses of OSMI-1, an inhibitor of OGT activity, from day 8 to day 14 of the raft culturing protocol. EdU, a thymidine analog that incorporates into DNA during DNA synthesis, was added to the media on day 13. 24 h later, on raft day 14, tissues were fixed in PFA for paraffin-embedding, sectioning, and immunofluorescence (IF) staining. Representative IF images are shown with nuclei stained with DAPI (blue), and proliferating cells visualized with click chemistry to detect EdU incorporation (pink). Quantification of the number of EdU+ cells per field is shown to the right. […] 2-way ANOVA was used to determine significance. Representative images shown. n=3.
# (§2) Representative IF images are shown with nuclei stained with DAPI (blue), proliferating cells visualized with click chemistry to detect EdU incorporation (white), basal cell layer keratinocytes stained with collagen 17A (COL17A; green) and differentiated layer keratinocytes stained with keratin 10 (K10; red). Quantifications of the total (top graph) and suprabasal (lower graph) number of EdU+ cells per field are shown to the right. […] 2-way ANOVA was used to determine significance. Representative images shown. n=3.
# [2] = system: HPV− keratinocytes grown into organotypic epithelial rafts; experiment: EdU proliferation in HPV− organotypic epithelial rafts
# Protocol: as §1, §2
# [3] = system: HPV+ keratinocytes 3D spheroids; experiment: 3D spheroid area, brightfield microscopy; details: HPV+ spheres, culture day 4, n=4
# Protocol: FIG. 3 (A) HPV+ and HPV− keratinocytes were seeded in round-bottom plates to form 3D spheroids (Day 0). 48 h after plating the cells (Day 2), increasing doses of Eliglustat were added to the media. 48 h after adding the drug treatment (Day 4), spheroids were imaged with brightfield microscopy and images quantified for sphere area. n=4. (B) Quantification of sphere area on culture day 4 after treatment with increasing doses of Eliglustat for 48 h.
# [4] = 6.25 uM OSMI-1, treated raft day 8 to day 14, EdU added day 13, n=3
# [5] = 25 uM OSMI-1 (highest dose tested), raft day 8 to day 14
# [6] = increasing doses of Eliglustat, raft day 8 to day 14, EdU added day 13, n=3
SMILES,"Proliferation (number of EdU+ cells per field) [1, 4]","Proliferation (number of EdU+ cells per field) [1, 5]","Proliferation (number of EdU+ cells per field) [2, 4]","Proliferation (number of EdU+ cells per field) [2, 5]","Proliferation (total and suprabasal number of EdU+ cells per field) [1, 6]","Proliferation (total and suprabasal number of EdU+ cells per field) [2, 6]","Sphere area ([3]; 25 uM Eliglustat (highest dose tested), 48 h)",Sphere area ([3]; increasing doses of Eliglustat for 48 h)
COc1ccccc1[C@@H](NS(=O)(=O)c1ccc2[nH]c(=O)ccc2c1)C(=O)N(Cc1ccco1)Cc1cccs1 [OSMI-1],significantly decreased,decreased proliferation,no effect on proliferation,decreased proliferation,–,–,–,–
CCCCCCCC(=O)N[C@H](CN1CCCC1)[C@H](O)c1ccc2c(c1)OCCO2 [Eliglustat],–,–,–,–,significantly decreased with increasing dose,no significant effect on proliferation,significantly reduce HPV+ sphere area to that of HPV− spheres,decreased concomitantly with increasing Eliglustat dose
